Laboratory results published in BindingDB's records for doi:10.1021/acs.jmedchem.6b01315 (Constellation Pharmaceuticals, 2016).

Target: Histone-lysine N-methyltransferase EZH2 (Homo sapiens, UniProt Q15910)
Test: Inhibition of EZH2 Y641F mutant in PRC2 complex (unknown origin) using RKQLATKAARK(Me3)SAPATGGVKKP-NH2 peptide substrate preincubated for 30 mins followed by addition of [3H]-SAM measured after 2 hrs by Topcount scintillation proximity assay

**Q.** How did the IC50 turn out when `COc1cc(C)[nH]c(=O)c1CNC(=O)c1c(C)n([C@H](C)C2CCNCC2)c2ccccc12` was run?
**A.** 3.9 nM

**Q.** Which IC50 does the source give for `COc1cc(C)[nH]c(=O)c1CNC(=O)c1c(C)n([C@H](C)C2CCN(C)CC2)c2ccccc12` here?
**A.** 1.7 nM

**Q.** With `COc1cc(C)[nH]c(=O)c1CNC(=O)c1c(C)n([C@H](C)C2CCN(C(=O)C(C)C)CC2)c2ccccc12` as the molecule, how does the IC50 read?
**A.** 16 nM

**Q.** For `COc1cc(C)[nH]c(=O)c1CNC(=O)c1c(C)n([C@H](C)C2CCN(C(=O)OC(C)C)CC2)c2ccccc12`, which IC50 is on record?
**A.** 4.1 nM

**Q.** For `COc1cc(C)[nH]c(=O)c1CNC(=O)c1c(C)n([C@H](C)C2CCN(C(=O)N(C)C)CC2)c2ccccc12`, which IC50 is on record?
**A.** 8.9 nM

**Q.** For `COc1cc(C)[nH]c(=O)c1CNC(=O)c1c(C)n([C@H](C)C2CCN(C3COC3)CC2)c2ccccc12`, which IC50 is on record?
**A.** 1.7 nM

**Q.** For `CCOC(=O)CN1CCC([C@@H](C)n2c(C)c(C(=O)NCc3c(OC)cc(C)[nH]c3=O)c3ccccc32)CC1`, which IC50 is on record?
**A.** 2.5 nM

**Q.** With `COc1cc(C)[nH]c(=O)c1CNC(=O)c1c(C)n([C@H](C)C2CCN(CCC(F)(F)F)CC2)c2ccccc12` as the molecule, how does the IC50 read?
**A.** 4.8 nM

**Q.** `COc1cc(C)[nH]c(=O)c1CNC(=O)c1c(C)n([C@H](C)C2CCN(CC(F)(F)C(F)F)CC2)c2ccccc12` was tested. Which IC50 did it give?
**A.** 3.3 nM

**Q.** `COc1cc(C)[nH]c(=O)c1CNC(=O)c1c(C)n([C@H](C)C2CCN(CC(F)F)CC2)c2ccccc12` was tested. Which IC50 did it give?
**A.** 3.8 nM
